Assay results from patent US20090325975A1, “Use of compounds binding to the sigma receptor for the treatment of diabetes-associated pain” (priority 2005, published 2009).

Assays:
sigma-2 = sigma-2 (Homo sapiens, UniProt Q5BJF2); conditions: cited from earlier work
[1] = test system: mechanical allodynia in STZ-induced mice; test: von-Frey test, mechanical allodynia in STZ-induced diabetic mice; assay type: in vivo; conditions: paw withdrawal response to von-Frey filaments
Source text: The pancreatic β-cell cytotoxic agent STZ is widely used to induce diabetes in rodents. The glucosamine-nitrosourea compound STZ is taken up into the insulin-producing β-cells of the islets of Langerhan's via the GLUT-2 glucose transporter. The cytotoxic effect of STZ is mediated through a decrease in NAD levels, and the formation of intracellular free radicals leading to various toxic effects, including DNA-strand breaks (Schnedl et al., 1994). […] STZ-induced diabetic rodents show common features of human diabetes that include damage to the eye, kidney, blood vessels, and nervous system. Diabetic neuropathic pain occurs mainly due to the damage in the nervous system (Sima and Sugimoto, 1999).
Method: In the present study, diabetes is induced in mice by a single i.v. injection of STZ (200 mg/kg) as reported previously (Kamei et al., 1991; Rashid and Ueda, 2002). […] The plasma glucose level in the mice is measured in blood samples obtained from tail vein. […]
Thermal hyperalgesia and mechanical allodynia is measured at different time points (1-21 days) after STZ injection. Mechanical allodynia is measured using von-Frey filaments, a well-established method known by those skilled in the art, where the paw withdrawal response is measured. Similarly, thermal hyperalgesia is measured as the latency to paw withdrawal evoked by exposing the right hind paw to a thermal stimulus. […]

sigma receptor = conditions: result in words; cited from earlier work
sigma-1 = sigma-1 (Homo sapiens, UniProt Q99720); conditions: cited from earlier work
Sequence of sigma-1 (Q99720 whole entry): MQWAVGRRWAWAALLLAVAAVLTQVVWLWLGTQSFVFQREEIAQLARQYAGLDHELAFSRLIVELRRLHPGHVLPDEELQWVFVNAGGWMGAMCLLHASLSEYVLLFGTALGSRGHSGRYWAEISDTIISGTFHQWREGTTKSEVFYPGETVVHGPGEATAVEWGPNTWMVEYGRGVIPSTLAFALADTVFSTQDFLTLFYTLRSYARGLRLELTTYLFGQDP

Sequence of sigma-2 (Q5BJF2 whole entry): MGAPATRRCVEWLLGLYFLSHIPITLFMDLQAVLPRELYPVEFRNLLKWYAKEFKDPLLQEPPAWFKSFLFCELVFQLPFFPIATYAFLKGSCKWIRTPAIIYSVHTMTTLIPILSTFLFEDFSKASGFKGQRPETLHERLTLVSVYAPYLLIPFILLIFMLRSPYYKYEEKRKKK

Structure (SMILES) | IC50 (sigma-2) [µM] | effect on mechanical allodynia in the von-Frey test [1] | affinity to the sigma receptor (sigma receptor) | IC50 (sigma-1) [µM]
CN1CCN(CCc2ccc(Cl)c(Cl)c2)CC1 [BD-1063, 1-(3,4-dichlorophenethyl)-4-methylpiperazine] | 0.8 | significantly antagonizes mechanical allodynia | high affinity | 0.03
CC(C)=CCN1CCC2(C)c3cc(O)ccc3CC1C2C (centres unmarked) [pentazocine] | – | – | very high affinity | –
